PubChem BioAssay (NCI)
Where “and” joins values, the source holds several entries; their conditions need not be identical. Equal values may be shown once.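 Following 48 hours of exposure in 96-well plates, responses at five concentrations were used to interpolate endpoints linearly. GI50 = concentration required for 50% inhibition of growth. Definition used: TGI = concentration required for complete inhibition of growth.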

Experiments:
Assay in all cases: NCI anticancer screen, dose series, 48 h
[1] = tested on: MDA-MB-231 breast
[2] = tested on: SK-MEL-5 melanoma
[3] = tested on: SK-MEL-28 melanoma
[4] = tested on: MDA-MB-435
[5] = tested on: SF-295 CNS
[6] = tested on: HL-60(TB) leukemia
[7] = tested on: ACHN renal
[8] = tested on: OVCAR-4 ovarian
[9] = tested on: KM12 colon
[10] = tested on: SN12C renal

Row | SMILES | GI50 [1] | TGI [1] | GI50 [2] | TGI [2] | GI50 [3] | TGI [3] | GI50 [4] | TGI [4] | GI50 [5] | TGI [5] | GI50 [6] | TGI [6] | GI50 [7] | TGI [7] | GI50 [8] | TGI [8] | GI50 [9] | TGI [9] | GI50 [10] | TGI [10]
1 | NC(=O)c1ccc(-c2nc(-c3ccc4c(c3)OCO4)c(-c3ccccn3)[nH]2)cc1 | 21.3 µM and 14.8 µM | > 25 µM and 59.1 µM | > 25 µM and 15.1 µM | > 25 µM and 29.2 µM | > 25 µM and 51.1 µM | > 100 µM | > 25 µM and 38.6 µM | > 100 µM | > 25 µM and 24.9 µM | > 25 µM and 79.1 µM | > 25 µM and 29.6 µM | > 25 µM and 69.1 µM | > 25 µM and 34 µM | > 100 µM | > 25 µM and 31.1 µM | > 100 µM | > 25 µM and 35.7 µM | > 100 µM | > 25 µM and 42.2 µM | > 100 µM
2 | OCCn1cnc2c(SCc3ccccc3)ncnc21 | – | > 100 µM | – | > 100 µM | – | > 100 µM | – | > 100 µM | – | > 100 µM | – | > 100 µM | – | > 100 µM | – | > 100 µM | – | > 100 µM | – | > 100 µM
3 | Nc1c(C(=O)c2cccc(-c3cccnc3)c2)cnn1-c1ccc(F)cc1F | 3.8 µM | > 25 µM | 1.8 µM | 13.8 µM | 10.1 µM | > 25 µM | 0.476 µM | 1.36 µM | 3.26 µM | > 24 µM | 5.76 µM | > 25 µM | 6.92 µM | > 25 µM | 7.77 µM | > 25 µM | 1.21 µM | > 25 µM | 7.53 µM | > 25 µM
4 | COC(=N)c1c(N)[n+]([O-])c2ccc(F)cc2[n+]1[O-] | > 100 µM | > 100 µM | 52.6 µM | > 100 µM | > 100 µM | > 100 µM | > 100 µM | > 100 µM | > 100 µM | > 100 µM | > 100 µM | > 100 µM | > 100 µM | > 100 µM | > 100 µM | > 100 µM | > 100 µM | > 100 µM | > 100 µM | > 100 µM
5 | Cc1ccc(-c2nc3nc(-c4ccccc4)nc(N4CCNCC4)c3o2)cc1 | 0.226 µM | 0.537 µM | 1.65 µM | 3.04 µM | 1.89 µM | 3.43 µM | 1.58 µM | 3.04 µM | 0.589 µM | 1.19 µM | 0.215 µM | 0.463 µM | 0.495 µM | 1.07 µM | 0.435 µM | 1.6 µM | 0.345 µM | 1.36 µM | 0.849 µM | 2.31 µM
6 | COC(=O)Nc1nc2ccc(Oc3cccc(NC(=O)Nc4cc(C(F)(F)F)ccc4F)c3)cc2[nH]1 | 11.4 µM | > 25 µM | 5.97 µM | > 17.4 µM | 11.3 µM | > 25 µM | 5.78 µM | 18.8 µM | 14.6 µM | > 25 µM | 4.98 µM | 18.5 µM | 24.4 µM | > 25 µM | 17.6 µM | > 25 µM | 7.57 µM | > 25 µM | 15.1 µM | > 25 µM
7 | CC(=O)[O][Sn]([CH2]c1ccccc1)([CH2]c1ccccc1)[CH2]c1ccccc1 | > 9.02 µM | > 10 µM | 4.15 µM | > 6.51 µM | > 5.6 µM | > 6.79 µM | > 7 µM | > 10 µM | > 5.52 µM | > 6.84 µM | > 5.79 µM | > 7.61 µM | > 10 µM | > 10 µM | > 4.36 µM | > 6.02 µM | > 10 µM | > 10 µM | > 10 µM | > 10 µM
8 | Nc1c(C(=O)c2cccc(C#CCO)c2)cnn1-c1ccc(F)cc1 | > 25 µM | > 25 µM | > 25 µM | > 25 µM | > 25 µM | > 25 µM | > 25 µM | > 25 µM | > 25 µM | > 25 µM | > 25 µM | > 25 µM | > 25 µM | > 25 µM | > 23.3 µM | > 25 µM | > 25 µM | > 25 µM | > 25 µM | > 25 µM
9 | COC(=O)c1cc2ccccc2c2c3c(ccc12)OCO3 | 59.7 µM | > 1000 µM | 45.2 µM | > 1000 µM | 71.3 µM | 328 µM | 531 µM | > 1000 µM | 99.8 µM | 548 µM | – | > 1000 µM | 75.3 µM | > 1000 µM | 22.3 µM | 133 µM | 515 µM | > 1000 µM | 205 µM | > 1000 µM
10 | Cc1cnc(CNC(=O)c2c(=O)c3ccc(N4CCCN(C)CC4)nc3n3c2sc2ccccc23)cn1 | 2.79 µM | 8.36 µM | 8.35 µM | 22.1 µM | 14.8 µM | 30.5 µM | 5.4 µM | 21.3 µM | 1.32 µM | 18.6 µM | 11.2 µM | 31.3 µM | 0.305 µM | 14.9 µM | 1.4 µM | 10.3 µM | 1.5 µM | 10.1 µM | 1.32 µM | 19.9 µM
